# Data as given in publication PMC2254445, “Statistical learning of peptide retention behavior in chromatographic separations: a new kernel-based approach for computational proteomics” (BMC Bioinformatics, 2007).
# Assay: Peptide retention time in capillary IP-RP-HPLC with ESI-MS detection
# Format: physicochemical
# Conditions: vds1 (verified peptides, tryptic digest of protein mixture 1), 50 × 0.2 mm monolithic poly-(styrene/divinylbenzene) column, gradient 0–40% acetonitrile in 0.05% (v/v) aqueous trifluoroacetic acid in 60 min, 55°C, 2 μl/min; for observed retention time: in s (unit assumed); for normalized retention time (NRT): retention times scaled linearly so that TCVADESHAGCEK = 0.1 and MPCTEDYLSLILNR = 0.9
# From the text: The datasets for training and evaluation of the retention time predictor had to fulfill two basic requirements. First, the identity of the studied peptides had to be known with high certainty in order to avoid incorrect sequence annotations for the training dataset, and second, retention times had to be measured with high reproducibility. Altogether, we measured 19 different proteins, which were purchased from Sigma (St. Louis, MO) or Fluka (Buchs, Switzerland). To avoid excessive overlapping of peptides in the chromatographic separations, the proteins were divided into three artificial protein mixtures and subsequently digested using trypsin (Promega, Madison, WI) using published protocols. The protein mixtures contained the following proteins in concentrations between 0.4 – 3.2 pmol/μl:
# Mixture 1: β-casein (bovine milk), conalbumin (chicken egg white), myelin basic protein (bovine), hemoglobin (human), leptin (human), creatine phosphokinase (rabbit muscle), α1-acid-glycoprotein (human plasma), albumin (bovine serum). […]
# Adding albumin to each protein mixture was performed because in each run, there had to be an identical set of peptides to normalize the retention times. The resulting peptide mixtures were then separated using capillary IP-RP-HPLC and subsequently identified by electrospray ionization mass spectrometry (ESI-MS) as described in detail in [37, 38]. The separations were carried out in a capillary/nano HPLC system (Model Ultimate 3000, Dionex Benelux, Amsterdam, The Netherlands) using a 50 × 0.2 mm monolithic poly-(styrene/divinylbenzene) column (Dionex Benelux) and a gradient of 0–40% acetonitrile in 0.05% (v/v) aqueous trifluoroacetic acid in 60 min at 55°C. The injection volume was 1 μl, and each digest was analyzed in triplicate at a flow rate of 2 μl/min. On-line ESI-MS detection was carried out with a quadrupole ion-trap mass spectrometer (Model esquire HCT, Bruker Daltonics, Bremen, Germany).
# Peptides were identified on the basis of their tandem mass spectra (maximum allowed mass deviations: precursor ions: ± 1.3 Da, fragment ions: ± 0.3 Da) using Mascot (version 2.1.03). The database was the Mass Spectrometry Database, MSDB (version 2005-02-27) restricted to chordata (vertebrates and relatives). We allowed one missed cleavage as well as charges 1+, 2+ and 3+. The mass values were monoisotopic. The significance level of the significance threshold score for the peptide hits was 0.05. Since the amino acid sequences of the 19 proteins of our mixtures are known, we could verify the identifications by sequence comparison with the protein sequences. To avoid random verifications, we restricted the peptide length to be equal or greater than six. The whole process led to two datasets for each protein mixture – one which only contained the verified peptides and the other one with all Mascot identifications. In this paper, we call the datasets containing the verified peptide sequences vds and the datasets with all Mascot identifications ds. The vdss are used to train the predictors and the dss are used to access the classification performance of the identification process.
# We chose two standard peptides which were identified in all of the runs. One of these peptides, which had the amino acid sequence TCVADESHAGCEK, eluted very early and the other one, which had the amino acid sequence MPCTEDYLSLILNR, eluted very late. We scaled the retention times linearly so that the early eluting peptide got an NRT of 0.1 and the late eluting peptide an NRT of 0.9. All peptides with an NRT below zero or above 1 were removed. The lists of identified peptides of vds1, vds2 and vds3, together with their respective retention times, are available as Additional files 1, 2 and 3 in the supplementary material.
Substance,observed retention time,normalized retention time (NRT)
"CCTESLVNR [verified tryptic peptide, vds1]",360,0.2011
"CCTKPESER [verified tryptic peptide, vds1]",47,0.05163
"CLDGSR [verified tryptic peptide, vds1]",169,0.1101
"DDPHACYSTVFDK [verified tryptic peptide, vds1]",809,0.4159
"DDPHACYSTVFDKLK [verified tryptic peptide, vds1]",1174,0.5908
"DEYELLCLDGSR [verified tryptic peptide, vds1]",1144,0.5761
"DKCEPLEK [verified tryptic peptide, vds1]",129,0.09093
"DVCKNYQEAK [verified tryptic peptide, vds1]",119,0.08607
"ECCDKPLLEK [verified tryptic peptide, vds1]",459,0.2486
"ECCHGDLLECADDR [verified tryptic peptide, vds1]",700,0.364
"ECNLAEVPTHAVVVRPEK [verified tryptic peptide, vds1]",1126,0.5677
"EQLGEFYEALDCLR [verified tryptic peptide, vds1]",1723,0.8534
"EQLGEFYEALDCLRIPK [verified tryptic peptide, vds1]",1949,0.9614
"ETYGDMADCCEK [verified tryptic peptide, vds1]",490,0.2635
"EYEATLEECCAK [verified tryptic peptide, vds1]",628,0.3297
"FFSASCVPGATIEQK [verified tryptic peptide, vds1]",1189,0.5977
"GACLLPK [verified tryptic peptide, vds1]",453,0.2458
"GTFAALSELHCDK [verified tryptic peptide, vds1]",1028,0.5207
"GTFAALSELHCDKLHVDPENFK [verified tryptic peptide, vds1]",1645,0.8158
"GYTLPPHCSR [verified tryptic peptide, vds1]",543,0.2886
"IQWCAVGK [verified tryptic peptide, vds1]",727,0.3767
"KSCHTAVGR [verified tryptic peptide, vds1]",59,0.05729

Substance,observed retention time,normalized retention time (NRT)
"LCQLCQGSGGIPPEK [verified tryptic peptide, vds1]",855,0.4382
"LFTFHADICTLPDTEK [verified tryptic peptide, vds1]",1608,0.7983
"LKPDPNTLCDEFK [verified tryptic peptide, vds1]",1112,0.5611
"LRCASIQK [verified tryptic peptide, vds1]",221,0.1348
"MPCTEDYLSLILNR [late eluting standard peptide identified in all runs; verified tryptic peptide, vds1]",1821,
"NAPYSGYSGAFHCLK [verified tryptic peptide, vds1]",1104,0.5571
"NECFLSHKDDSPDLPK [verified tryptic peptide, vds1]",944,0.4804
"NLQMDDFELLCTDGR [verified tryptic peptide, vds1]",1581,0.7853
"NLQMDDFELLCTDGRR [verified tryptic peptide, vds1]",1522,0.7573
"RPCFSALTPDETYVPK [verified tryptic peptide, vds1]",1337,0.6687
"SHCIAEVEK [verified tryptic peptide, vds1]",238,0.1429
"SLHTLFGDELCK [verified tryptic peptide, vds1]",1196,0.6014
"TCNPSDILQMCSFLEGK [verified tryptic peptide, vds1]",1877,0.9271
"TCVADESHAGCEK [early eluting standard peptide identified in all runs; verified tryptic peptide, vds1]",148,
"TGTCNFDEYFSEGCAPGSPPNSR [verified tryptic peptide, vds1]",1370,0.6845
"TSCHTGLGR [verified tryptic peptide, vds1]",76,0.06527
"VGGHAAEYGAEALER [verified tryptic peptide, vds1]",643,0.3365
"WCTISSPEEK [verified tryptic peptide, vds1]",697,0.3623
"WSVVSNGDVECTVVDETK [verified tryptic peptide, vds1]",1250,0.6268
"YICDNQDTISSK [verified tryptic peptide, vds1]",404,0.2223
"YNGVFQECCQAEDK [verified tryptic peptide, vds1]",775,0.3998
